According to article PMC11311998, “AR71, Histamine H3 Receptor Ligand—In Vitro and In Vivo Evaluation (Anti-Inflammatory Activity, Metabolic Stability, Toxicity, and Analgesic Action)” (International Journal of Molecular Sciences, 2024):
Where “and” joins values, the source holds several entries; their conditions need not be identical. Equal entries are not always repeated.

Tests used:
[1] = tested on: BV-2 cells; assay: cytokine/chemokine panel in LPS-stimulated microglia (Luminex); type: cell-based, mouse
From the text: In the research presented in this paper, we extended the study of the anti-inflammatory properties of AR71 by analysing the panel of cytokines/chemokines in mouse microglia with the Luminex® platform. We applied MILLIPLEX® Magnetic Bead Panel that consists of nine different analytes regarding inflammation. Some of the analytes were below the limit of quantification, and the reason for this is explained in the text.
BV-2 cells (the murine microglial cell line) were purchased from the Interlab Cell Line Collection (ICLC) cell bank (ICLC, Genova, Italy). The cells were cultured in DMEM medium (Gibco no. 61965-026, ThermoFisher Scientific, Waltham, MA, USA) containing 10% charcoal-stripped foetal bovine serum (CS-FBS, Biowest no. S181f, batch no. S00NP) in a humidified incubator containing 95% air and 5% CO2 at 37 °C. CS-FBS was used to study the effect of compounds on neuroinflammation in vitro without the confounding effects of some cytokines that are naturally present in serum. Experiments were carried out with BV-2 cells from passages 7 to 13.
The Luminex assay is a form of immunoassay that utilises magnetic microparticles and the same sandwiching techniques as ELISAs. To analyse the panel of cytokines/chemokines in mouse microglia, we used a MILLIPLEX® Magnetic Bead Panel (MCYTOMAG-70K, Millipore, Sigma-Aldrich, Darmstadt, Germany). The following analytes were studied: IFN-γ, IL-1β, IL-4, IL-6, IL-10, IL-12 (p40), IP-10, MIP-2, and TNF-α. The preparation of antibody-immobilised beads, quality controls, mouse cytokine standard, and immunoassay procedure, were performed according to the manufacturer’s protocol. All standards, quality controls, and samples were analysed in duplicate on the Luminex 200 multiplexing instrument (Luminex Corp, Austin, TX, USA). Sample analyte concentrations were determined using Belysa 1.1.0 curve-fitting software and the standard curve data from each run (Millipore, Sigma-Aldrich, Darmstadt, Germany). To perform multiplex cytokine analysis, BV-2 cells (150 × 10^3 cells/well/500 μL in 24-well plate) were pre-treated for 1 h with AR71, and then LPS (1 μg/mL) was added to induce inflammation. The cells were cultured for another 24 h. After this time, cell culture supernatants were collected, centrifuged to remove cell debris, and stored at −80 °C for analysis. To avoid multiple freeze/thaw cycles, the samples were aliquoted.

[2] = tested on: CCI-exposed mice; assay: cold plate test in CCI neuropathic pain model; type: in vivo, mouse
Experimental: (§1) The effects of a single intraperitoneal (i.p.) injection of AR71 at doses of 5, 10, and 20 mg/kg on mechanical (von Frey test) and thermal (cold plate and tail flick tests) stimulus were evaluated on day 14 following sciatic nerve injury (Figure 15). There were seven to eight animals per group. All these tests were performed in three time series after the administration of the compound. In the case of the von Frey test—after 30, 90, and 180 min; the cold plate test—after 35, 95, and 185 min; and the tail flick test—after 40, 100, and 190 min.
The mice were randomly divided into four experimental groups. […] All data from behavioural tests were analysed using a one-way ANOVA with Bonferroni’s multiple comparison post hoc test. […]
The cold plate test (performed by the Cold/Hot Plate Analgesia Meter, Columbus Instruments, N. Hague Ave, Columbus, OH, USA) was used to assess sensitivity to noxious thermal stimuli. […] The mice were placed on a cold plate, and the time it took to lift the injured paw was recorded.

[3] = tested on: CCI-exposed mice; assay: tail flick test in CCI neuropathic pain model; type: in vivo, mouse; details: 20 mg/kg i.p.
Experimental: as §1
The mice were randomly divided into four experimental groups. One group received a vehicle treatment (10% DMSO/10%(2-Hydroxypropyl)-β-cyclodextrin/water for injection, i.p.), while the other three groups were administered with AR71 at doses of 5, 10, or 20 mg/kg of body weight (b.w.), i.p. Baseline measurements for all tests were conducted before the compounds were injected, and the results are presented as percentages of the maximal possible effect (% MPE). […] All data from behavioural tests were analysed using a one-way ANOVA with Bonferroni’s multiple comparison post hoc test. […]
Tail flick latency was measured on the dorsal part of the tail at two-thirds of its length by applying a focused beam of light (thermal stimulus). The time interval between the thermal stimulus’s onset and the tail’s withdrawal from the beam was recorded. […]

[4] = target: hH4R; parameters: method as in PMID 36370200; details: cited from earlier work
[5] = 1 h pre-treatment, LPS 1 μg/mL, 24 h

SMILES: COc1cc(/C=C/C(=O)c2ccc(OCCCN3CCCCC3)cc2)cc(OC)c1OC [AR71, (E)-3-(3,4,5-trimethoxyphenyl)-1-(4-(3-(piperidin-1-yl)propoxy)phenyl)prop-2-en-1-one]
- reduction of IL-1β vs level after LPS stimulation [1, 5]: 2.66 times lower
- reduction of IL-6 vs level after LPS stimulation [1, 5]: 5.94 times lower
- reduction of TNF-α vs level after LPS stimulation [1, 5]: 1.77 times lower
- effect on CXCL-10 (IP-10) ([1]; in the presence of LPS): repressed
- IL-4 level in the presence of LPS ([1]; with LPS): did not restore the level of IL-4 to the control point
- IL-4 level, compound alone ([1]; without LPS, vs unstimulated BV-2 cells): half the IL-4 content
- effect in cold plate test vs control ([2]; 5, 10 and 20 mg/kg i.p., 35 min (5 mg/kg p < 0.05; 10 and 20 mg/kg p < 0.001)): Analgesic effects
- effect in cold plate test vs control ([2]; 95 and 185 min after injection, 10 and 20 mg/kg i.p.): only the two higher doses were effective
- effect in tail flick test vs vehicle ([3]; 100 and 190 min (p < 0.001 and p < 0.01)): significant pain-relieving effects
- effect in tail flick test vs vehicle ([3]; 40 min post-injection, p < 0.05): significant analgesic effect
- Ki [4]: 2820 nM and > 2500 nM
